# In patent US20230190707A1, “COMPOSITIONS AND METHODS FOR ENHANCING CANCER IMMUNOTHERAPY” (FRED HUTCHINSON CANCER CENTER, priority 2020, published 2023):
# Assays:
# [1] = Histologic evaluation of immune-related tissue toxicities; format: in vivo, mouse; settings: tumor-bearing mice
# Protocol: Animal tissues were fixed in 4% paraformaldehyde, decalcified (for bone), dehydrated and paraffin embedded. Blocks were sectioned and stained with hematoxylin and eosin or anti-CD8. Images were acquired using an Axio Observer A1 microscope (Carl Zeiss, Oberkochen, Germany) or scanned using an Aperio AT slide scanner (Leica Biosystems, Buffalo Grove, Ill.). Automated quantification of infiltrating CD8^+ T cells was performed using HALO software (Indica labs, Albuquerque, N. Mex.). Pathologic evaluation of immune-related tissue toxicities was performed in a blinded fashion by one of the authors who is a trained pathologist (Ben Durham, MD).
# [2] = tested on: T cells stimulated with anti-CD3 and CD28 antibodies; assay: Gene expression program of activated T cells (RNA-seq); format: cell-based, mouse; settings: ex vivo anti-CD3 and CD28 stimulation in presence of drug
# Protocol: (§1) Plates were coated with 10 μg/mL anti-CD3 (clone 145-2C11, Biolegend Cat. 100302) and 2 μg/mL anti-CD28 (clone 37.51, Biolegend Cat. 102102) in PBS overnight at 4° C. and washed twice with cold PBS prior to use. CFSE-labeled CD5-selected splenic T cells from naïve C57BL/6J mice were obtained identically as for adoptive cell transfer, and 5×10^4 cells incubated with coated plates in the presence of splicing inhibitor drugs at the indicated concentrations, followed by analysis by standard flow cytometry on day 3. Of note, for RNA-seq analyses, T cells were not labeled with CFSE, and underwent activation for 4 days (96 hours) in the presence of various splicing modulator drugs to harmonize experimental conditions with RNA-seq analyses of tumors treated with splicing inhibitors. For the RNA-seq experiments only, T cells in all conditions were also incubated with IL-2 at 50 U/mL to maximize viability and yield.
# Bulk lung and colon were homogenized using a Qiagen TissueRuptor. For all tissues and cell types, RNA was extracted using an RNeasy kit (Qiagen, Frederick, Md.) and quantified using a NanoDrop 8000 (ThermoFisher Scientific). A minimum of 500 ng of high-quality RNA (as determined by Agilent Bioanalyzer) per sample or replicate was used for library preparation. Poly(A)-selected, strand-specific (dUTP method) Illumina libraries were prepared with a modified TruSeq protocol and sequenced on the Illumina HiSeq 2000 (˜100M 2×101 bp paired-end reads per sample or replicate).
# [3] = tested on: OT-1 transgenic T cells against ovalbumin (OVA)-expressing B16-F10 cells; assay: OT-1 cytotoxicity assay; format: cell-based, mouse; settings: 18 hours; minimal impairment at doses less than 4 μM
# Protocol: Bulk splenocytes from OT-1 animals were cultured for three days with 100 U/mL murine IL-2 and 100 μg/mL SIINFEKL (SEQ ID NO:1) peptide to activate CD8^+ T cells. Cultures were subsequently washed thoroughly to remove ova peptide and rested for at least 24 hours prior to use. OT-1 cells were passaged in T cell media with 50 U/mL IL-2 for no more than seven days from animal sacrifice prior to use. For the cytotoxicity assay, tumor cells alone or OT-1+tumor cells (1:1 ratio) were incubated in T cell media for 18 hours under standard conditions with the indicated concentrations of splicing drugs and analyzed by flow cytometry to quantify killing. OT-1 cells and other hematopoietic cells were excluded with the use of CD45, CD3, and CD8 staining. Tumor cell viability was measured using DAPI.
# CD5^+ splenic T cells = assay: Anti-CD3/CD28 T cell activation and proliferation (CFSE); format: cell-based, mouse
# Protocol: Cell lines were grown with half-log10 concentrations of the indicated drug in 4 to 8 technical replicates under standard conditions until the control condition (DMSO or vehicle) was confluent by microscopy. For tumor cell lines, viable cells were quantified via the CellTiter-Glo® assay (Promega Cat. G7573) as per manufacturer instructions. For the ex vivo proliferation of T cells, viable cells were instead quantified via flow cytometry using counting beads. The percentage or number of viable cells with drug treatment was calculated relative to DMSO control (as 100%). […] For absolute cell number, Annexin V+, CD25+, and PD1+ flow cytometry data presented in Figure S4, dose-response models and IC50 values were computed using the R language's dre package (Ritz, C., et al. (2015). Dose-Response Analysis Using R. PLoS One 10, e0146021).
# as §1
# OT-1 T cells = assay: LAMP-1 T cell degranulation assay; format: cell-based, mouse; settings: higher doses
# Protocol: OT-1 cells were generated as described for the cytotoxicity assay and incubated with ovalbumin-expressing tumor cell lines (pre-treated overnight with IFNγ 100 U/mL to upregulate cell-surface MHC I) in the presence of DMSO or varying concentrations of splicing modulator drugs as indicated, in the presence of LAMP-1 antibody for 5-6 hours under standard incubator conditions. After the first hour of incubation, BD GolgiPlug™ (brefeldin A) and BD GolgiStop™ (monensin) was added at […] respectively into cells. At the end of incubation, cells were washed and stained for cell surface markers prior to standard flow cytometry.
SMILES,"histologic inflammation or immune infiltrates in skin, lung, gut, or liver [1]",genes normally upregulated upon T cell activation [2],in vitro cytotoxicity of primed OT-1 T cells against OVA-expressing B16-F10 cells [3],T cell apoptosis and activation markers (CD5^+ splenic T cells),ability of OT-1 T cells to degranulate intracellular cytolytic molecules (OT-1 T cells),"IC50 (CD5^+ splenic T cells; Mus musculus, T-cell, 72 h, three days of continuous drug exposure, read-out: IC50 values, T cell proliferation following stimulation)"
CC(C)Oc1ccc(-c2c[nH]cc2CN(C)CCN)cc1 [MS-023],did not result in overt histologic inflammation,much milder changes,minimally impaired,much milder effects,did not inhibit,
NS(=O)(=O)c1ccc(S(=O)(=O)Nc2cccc3c(Cl)c[nH]c23)cc1 [indisulam],did not result in overt histologic inflammation,much milder changes,minimally impaired,much milder effects,did not inhibit,1 to 10 µM
